These results are taken from patent US12391675B2, “NLRP3 modulators” (INNATE TUMOR IMMUNITY, INC., priority 2019, dated 2025).

Each structure is given as a SMILES string.

In this experiment the target is T1, NLRP3 (Homo sapiens, UniProt Q96P20).
T1 construct: host or cells: PMA-differentiated THP-1 cells
T1 sequence (Q96P20 whole entry): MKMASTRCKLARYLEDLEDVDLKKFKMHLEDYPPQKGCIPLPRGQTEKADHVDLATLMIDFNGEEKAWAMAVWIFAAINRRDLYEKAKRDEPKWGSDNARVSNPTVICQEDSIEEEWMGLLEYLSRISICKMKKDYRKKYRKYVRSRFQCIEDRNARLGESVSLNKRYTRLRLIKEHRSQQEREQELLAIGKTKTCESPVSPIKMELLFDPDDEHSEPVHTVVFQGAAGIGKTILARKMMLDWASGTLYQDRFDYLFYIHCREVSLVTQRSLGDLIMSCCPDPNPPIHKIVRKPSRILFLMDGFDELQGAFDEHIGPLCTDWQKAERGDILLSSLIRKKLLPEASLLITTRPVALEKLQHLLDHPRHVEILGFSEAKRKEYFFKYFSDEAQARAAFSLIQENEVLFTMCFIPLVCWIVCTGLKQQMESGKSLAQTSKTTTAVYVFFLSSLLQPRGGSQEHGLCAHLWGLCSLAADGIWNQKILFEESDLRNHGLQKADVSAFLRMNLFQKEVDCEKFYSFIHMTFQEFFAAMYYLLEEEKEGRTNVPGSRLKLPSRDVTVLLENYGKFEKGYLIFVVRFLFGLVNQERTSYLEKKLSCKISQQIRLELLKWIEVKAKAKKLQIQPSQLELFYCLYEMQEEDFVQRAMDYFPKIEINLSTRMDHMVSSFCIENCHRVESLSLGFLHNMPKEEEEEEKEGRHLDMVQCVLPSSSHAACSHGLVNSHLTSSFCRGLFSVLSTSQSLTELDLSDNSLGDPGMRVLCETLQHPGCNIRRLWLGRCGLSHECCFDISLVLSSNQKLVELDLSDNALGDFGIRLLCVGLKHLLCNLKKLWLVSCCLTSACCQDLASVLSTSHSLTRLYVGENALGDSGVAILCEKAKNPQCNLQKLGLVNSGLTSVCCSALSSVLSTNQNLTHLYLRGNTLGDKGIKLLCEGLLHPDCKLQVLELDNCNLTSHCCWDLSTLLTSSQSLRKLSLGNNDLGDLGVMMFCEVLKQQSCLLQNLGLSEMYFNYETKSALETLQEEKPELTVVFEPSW
Put plainly: Measurement of IL-1β production in PMA-differentiated THP-1 cells (NLRP3 hIL1B EC50). The format is cell-based. The procedure:
Measurement of IL-1β Production in PMA-Differentiated THP-1 Cells
THP-1 cells were purchased from the American Type Culture Collection and sub-cultured according to instructions from the supplier. Prior to experiments, cells were cultured in RPMI 1640 containing 10% heat inactivated FBS, penicillin (100 units/ml) and streptomycin (100 μg/ml), and maintained in log phase prior to experimental setup. Prior to the experiment THP-1 were treated with PMA (Phorbol 12-myristate 13-acetate) (10 μg/ml) for 24 hours. The day of the experiment the media was removed and attaching cells were treated with trypsin for 2 minutes, cells were then collected, washed with PBS (phosphate buffer saline), spin down, resuspended in 2% heat inactivated FBS with RPMI at a concentration of 1×10^6 cells/ml, and 100 μl was plated in a 96 well plate. Compounds were dissolved in dimethyl sulfoxide (DMSO) and added to the culture medium to achieve desired concentration (e.g. 100, 30, 10, 3, 1, 0.3 or 0.1 μM). Cells were incubated with compounds for 4 hours. Cell free supernatant was collected and the production of IL-1β was evaluated by ELISA. A vehicle only control was run concurrently with each experiment. Final DMSO concentration was 1%.
Measurement of IL-1β Production in PMA-Differentiated THP-1 Cells (Alternative Procedure)
THP-1 cells were purchased from the American Type Culture Collection and sub-cultured according to instructions from the supplier. Prior to experiments, cells were cultured in RPMI 1640 containing 10% heat inactivated FBS, penicillin (100 units/ml), streptomycin (100 μg/ml), HEPES (10 mM) and sodium pyruvate (1 mM) and maintained in log phase prior to experimental setup. Prior to the experiment, THP-1 cells were treated with PMA (Phorbol 12-myristate 13-acetate) (20 μg/ml) overnight. The day of the experiment, the media was removed and attached cells were treated with trypsin for 2 minutes, cells were then collected, washed with PBS (phosphate buffer saline), pelleted by centrifugation and resuspended in 2% heat inactivated FBS with RPMI at a concentration of 50,000 cells/well in a 384 well plate. Cell free supernatant was collected and the production of IL-1β was evaluated by ELISA. Compounds were dissolved in dimethyl sulfoxide (DMSO) and added to the culture medium to achieve desired concentration (e.g. 100, 30, 10, 3, 1, 0.3 or 0.1 μM). Cells were incubated with compounds for 2 hours. A vehicle only control was run concurrently with each experiment. Final DMSO concentration was 1%.
Measurement of IL-1β Production—hTRF Protocol (Second Alternative Procedure)
Serial dilutions of compounds in DMSO were added to low volume 384 well plates at 100 nl/well using an ECHO 550 acoustic dispenser (Labcyte) to achieve final starting concentration of 10 μM in assay.
THP-1 cells in RPMI (Gibco, 11875) media with 10% FBS at a density of 1×10^6 cell/ml in a T175 flask were treated with a final concentration of phorbol 12-myristate 13-acetate (PMA) (Sigma, P1585) of 50 ng/ml overnight at 37° C. at 5% CO2 for differentiation. Cells were harvested the next day after rinsing well wth dPBS using 0.5% trypsin. A cell solution was prepared of 1×10^6 cells/ml for 50,000 cells in 50 μl/well in RPMI media with 2% FBS. Cells were plated using a multichannel pipette onto the compound dilutions in Greiner, 384 well, black clear bottom tissue culture treated plates (781090). The plates were incubated in 37° C. incubator at 5% CO2 for 2 hours.
After the 2 hour incubation, the cell plates were spun in the centrifuge for 5 minutes at 1200 rpm. Using the Felix (CyBio), 8 μl of the supernatant was transferred to 384 well, low volume, white proxy plates. (Perkin Elmer, 6008230). A human IL1beta hTRF kit was used to analyze the supernatant (CISBIO, 62HIL1BPEG). The kit instructions were followed for preparing the IL1Beta standard curve and then the antibodies from the kit were diluted 1:40 rather than 1:20 as kit instructed. […]
`Nc1nc(NC2CC3(CC(O)C3)C2)c2ccc(-c3ccn[nH]3)cc2n1` (stereo not drawn) [Example 3, 6-((2-amino-7-(1H-pyrazol-5-yl)quinazolin-4-yl)amino)spiro[3.3]heptan-2-ol] returned an EC50 of 1000 nM.

In turn, `Nc1nc(N[C@H]2[C@@H]3COC[C@@H]32)c2ccc(-c3ccn[nH]3)cc2n1` [Example 4] showed an EC50 of 310 nM. The same measure for `Nc1nc(NC2C3CCC(C3)C2CO)c2ccc(-c3ccn[nH]3)cc2n1` (stereo not drawn) [Example 5]: 810 nM; for `Nc1nc(N[C@@H]2[C@@H]3COC[C@@H]32)c2ccc(-c3ccn[nH]3)cc2n1` [Example 6]: 310 nM.

`Nc1nc(NC23CC(CO)(C2)C3)c2ccc(-c3ccn[nH]3)cc2n1` [Example 7] displayed an EC50 of 200 nM.

In the case of `Nc1nc(NC23CC4CC(CC(O)(C4)C2)C3)c2ccc(-c3cc[nH]n3)cc2n1` [Example 11, (1s,3r,5R,7S)-3-((2-Amino-7-(1H-pyrazol-3-yl)quinazolin-4-yl)amino)adamantan-1-ol], the EC50 was 2110 nM. In the case of `Nc1nc(N2C3CCC2COC3)c2ccc(-c3cc[nH]n3)cc2n1` [Example 12] it was 640 nM; in that of `Nc1nc(NC23CC(C2)C3)c2ccc(-c3cc[nH]n3)cc2n1` [Example 13], 200 nM. In the case of `Nc1cc(N[C@@H]2C[C@H]3C[C@@H](O)C[C@H]3C2)c2ccc(-c3ccn[nH]3)cc2n1` [Example 14, (2r,3aR,5r,6aS)-5-((2-amino-7-(1H-pyrazol-5-yl)quinolin-4-yl)amino)octahydropentalen-2-ol] it was 640 nM.

`Nc1cc(NC23CC(C2)C3)c2ccc(-c3ccn[nH]3)cc2n1` [Example 19] returned an EC50 of 320 nM. The same measure for `Nc1cc(N[C@H]2[C@@H]3COC[C@@H]32)c2ccc(-c3ccn[nH]3)cc2n1` [Example 20]: 110 nM; for `Nc1cc(NC2CC3(CC(O)C3)C2)c2ccc(-c3ccn[nH]3)cc2n1` (stereo not drawn) [Example 21]: 880 nM; for `Nc1cc(N2C3CCC2COC3)c2ccc(-c3ccn[nH]3)cc2n1` [Example 22]: 2000 nM.

For the compound `Nc1cc(N2CC3CCC(C2)O3)c2ccc(-c3ccn[nH]3)cc2n1` [Example 23], the EC50 was found to be 740 nM.

As for `Nc1cc(N2C3CCC2COC3)c2ncc(-c3cc[nH]n3)cc2n1` [Example 24, 4-(3-oxa-8-azabicyclo[3.2.1]octan-8-yl)-7-(1H-pyrazol-3-yl)-1,5-naphthyridin-2-amine], the EC50 was 890 nM.

The compound `Nc1cc(NC2COCCC23OCCO3)c2ccc(-c3cc[nH]n3)cc2n1` (stereo not drawn) [Example 33, 7-(1H-pyrazol-3-yl)-N4-(1,4,8-trioxaspiro[4.5]decan-6-yl)quinoline-2,4-diamine] came in with an EC50 of 17400 nM.

Turning to `Nc1nc(NCC23CC(CO)(C2)C3)c2ccc(-c3ccn[nH]3)cc2n1` [Example 34, (3-(((2-amino-7-(1H-pyrazol-5-yl)quinazolin-4-yl)amino)methyl)bicyclo[1.1.1]pentan-1-yl)methanol], the EC50 is 3960 nM. In the case of `Nc1nc(NC2CC23CC3)c2ccc(-c3cc[nH]n3)cc2n1` (stereo not drawn) [Example 35] it was 190 nM. With `Nc1nc(NC2CC3(CC3)C2)c2ccc(-c3cc[nH]n3)cc2n1` [Example 37], the EC50 turned out to be 300 nM. `CCN1CCC2(CCN(c3nc(N)nc4cc(-c5cc[nH]n5)ccc34)C2)C1` (stereo not drawn) [Example 38] came in with an EC50 of 2580 nM. In the case of `Nc1nc(NCC2C[C@H]3CC[C@@H]2CC3)c2ccc(-c3cc[nH]n3)cc2n1` (stereo partly drawn) [Example 39] it was 860 nM; in that of `Nc1cc(OCC23CCC(CC2)OC3)c2ccc(-c3cc[nH]n3)cc2n1` [Example 47, 4-((2-oxabicyclo[2.2.2]octan-4-yl)methoxy)-7-(1H-pyrazol-3-yl)quinolin-2-amine], 320 nM; in that of `Nc1cc(NCC23CCC(CC2)OC3)c2ccc(-c3cc[nH]n3)cc2n1` [Example 48, N4-((2-oxabicyclo[2.2.2]octan-4-yl)methyl)-7-(1H-pyrazol-3-yl)quinoline-2,4-diamine], 570 nM.

The compound `Nc1cc(NCC23CCC(CC2)OC3)c2ccc(-c3ccsc3)cc2n1` [Example 49, N4-((2-oxabicyclo[2.2.2]octan-4-yl)methyl)-7-(thiophen-3-yl)quinoline-2,4-diamine] had an EC50 of 540 nM.

With `COC(=O)C12CCC(CNc3cc(N)nc4cc(-c5cc[nH]n5)ccc34)(CC1)CC2` [Example 50, methyl 4-(((2-amino-7-(1H-pyrazol-3-yl)quinolin-4-yl)amino)methyl)bicyclo[2.2.2]octane-1-carboxylate], the half-maximal effective concentration (EC50) came to 1730 nM. In the case of `Nc1cc(NCC23CCC(CO)(CC2)OC3)c2ccc(-c3ccsc3)cc2n1` [Example 51, (4-(((2-amino-7-(thiophen-3-yl)quinolin-4-yl)amino)methyl)-2-oxabicyclo[2.2.2]octan-1-yl)methanol] it was 1860 nM. For `Nc1cc(NCC23CC(CO)(C2)C3)c2ccc(-c3ccn[nH]3)cc2n1` [Example 52, (3-(((2-amino-7-(1H-pyrazol-5-yl)quinolin-4-yl)amino)methyl)bicyclo[1.1.1]pentan-1-yl)methanol], the EC50 came to 980 nM.

Broadly, the EC50 is the concentration giving half of the maximal effect. Read a low EC50 as an effect from little substance.
